Reference: patent US20230027066A1 (Urovant Sciences GmbH, priority 2019, published 2023)

Experiments:
[1] = 40-week extension study (52 weeks), adverse events; conditions: both, human, in vivo, 52 weeks
Excerpt: Approximately 500 men and women with overactive bladder who completed 12 weeks in the parent study were permitted to enroll, at approximately 110 study sites in the U.S.
Secondary endpoints were evaluation of CFB at Week 52 in average number of micturitions, Urge Urinary Incontinence (UUI) episodes, urgency episodes, and total urinary incontinence episodes. All CFB calculations used the parent study Baseline value.

[2] = Phase 3 study (75 mg), adverse events; assay type: in vivo, human
Description: Study assessments of safety included adverse events, physical examinations, vital signs (and weight), and clinical laboratory tests
An adverse event is any untoward medical occurrence in a patient or clinical investigation patient, temporally associated with the use of a medicinal product, whether or not considered related to the medicinal product.
Adverse Events of Clinical Interest for this study included:
Safety analyses were conducted using the SAF and summarized by treatment group as treated. The treatment-emergent period is defined as the period of time from the first dose date of the double blinded Study Treatment through 28 days after the last dose of Study Treatment, or the date of initiation of another investigational agent or surgical intervention or rollover to the extension study, whichever occurs first. Safety was assessed through summaries of adverse events, the frequency of treatment discontinuations due to adverse events, and clinical laboratory evaluations.

SMILES: O=C(Nc1ccc(C[C@@H]2CC[C@H]([C@H](O)c3ccccc3)N2)cc1)[C@@H]1CCc2nccc(=O)n21 [Vibegron, (6S)-N-[4-[[(2S,5R)−5-[(R)-hydroxy(phenyl)methyl]pyrrolidin−2-yl]methyl]phenyl]−4-oxo−7,8-dihydro−6H-pyrrolo[1,2-a]pyrimidine−6-carboxamide]
- AE: Constipation [1]: 10 (3.7) n (%)
- AE: Diarrhea [1]: 13 (4.8) n (%)
- AE: Dizziness [1]: 4 (1.5) n (%)
- AE: Dry mouth [1]: 5 (1.8) n (%)
- AE: Fatigue [1]: 3 (1.1) n (%)
- AE: Headache [1]: 15 (5.5) n (%)
- AE: Hyperglycemia [1]: 7 (2.6) n (%)
- AE: Hypertension [1]: 24 (8.8) n (%)
- AE: Hypotension [1]: 0 n (%)
- AE: Musculoskeletal pain [1]: 6 (2.2) n (%)
- AE: Nasopharyngitis [1]: 13 (4.8) n (%)
- AE: Nausea [1]: 10 (3.7) n (%)
- AE: Residual urine volume increased [1]: 7 (2.6) n (%)
- AE: Syncope [1]: 0 n (%)
- AE: Tachycardia (Sinus Tachycardia) [1]: 1 (0.4) n (%)
- AE: Upper respiratory tract infection [1]: 10 (3.7) n (%)
- AE: Urinary retention [1]: 3 (1.1) n (%)
- AE: Urinary tract infection [1]: 18 (6.6) n (%)
- Discontinued the study: Adverse Event [1]: 3 (1.6) n (%)
- AE: ALT increase ([2]; 12-week study): 1 (0.2) n (%)
- AE: AST increase ([2]; 12-week study): 1 (0.2) n (%)
- AE: Atrial fibrillation ([2]; 12-week study): 1 (0.2) n (%)
- AE: Bilirubin increased ([2]; 12-week study): 0 n (%)
- AE: Blood creatinine increased ([2]; 12-week study): 1 (0.2) n (%)
- AE: Blood pressure diastolic increased ([2]; 12-week study): 0 n (%)
- AE: Blood pressure increased ([2]; 12-week study): 4 (0.7) n (%)
- AE: Cardiac failure congestive ([2]; 12-week study): 1 (0.2%) n (%)
- AE: Cerebrovascular accident ([2]; 12-week study): 1 (0.2) n (%)
- AE: Chest discomfort ([2]; 12-week study): 4 (0.7) n (%)
- AE: Chest pain ([2]; 12-week study): 0 n (%)
- AE: Chronic kidney disease ([2]; 12-week study): 1 (0.2) n (%)
- AE: Constipation ([2]; 12-week study): 9 (1.7) n (%)
- AE: Cystitis ([2]; 12-week study): 1 (0.2) n (%)
- AE: Diarrhea ([2]; 12-week study): 12 (2.2) n (%)
- AE: Dizziness ([2]; 12-week study): 5 (0.9) n (%)
- AE: Drug hypersensitivity ([2]; 12-week study): 2 (0.4) n (%)
- AE: Dry mouth ([2]; 12-week study): 9 (1.7) n (%)
- AE: Dysuria ([2]; 12-week study): 0 n (%)
- AE: Escherichia urinary-tract infection ([2]; 12-week study): 0 n (%)
- AE: Fatigue ([2]; 12-week study): 2 (0.4) n (%)
- AE: Glomerular filtration rate decreased ([2]; 12-week study): 1 (0.2) n (%)
- AE: Headache ([2]; 12-week study): 22 (4.0) n (%)
- AE: Hepatic enzyme increased ([2]; 12-week study): 0 n (%)
- AE: Hot flush ([2]; 12-week study): 4 (0.7) n (%)
- AE: Hyperglycemia ([2]; 12-week study): 3 (0.6) n (%)
- AE: Hypertension ([2]; 12-week study): 9 (1.7) n (%)
- AE: Hypotension ([2]; 12-week study): 1 (0.2) n (%)
- AE: Nasopharyngitis ([2]; 12-week study): 15 (2.8) n (%)
- AE: Nausea ([2]; 12-week study): 12 (2.2) n (%)
- AE: Pollakiuria ([2]; 12-week study): 0 n (%)
- AE: Positional vertigo ([2]; 12-week study): 0 n (%)
- AE: Residual urine volume increased ([2]; 12-week study): 4 (0.7) n (%)
- AE: Somnolence ([2]; 12-week study): 2 (0.4) n (%)
- AE: Syncope ([2]; 12-week study): 0 n (%)
- AE: Tachycardia ([2]; 12-week study): 0 n (%)
- AE: Transaminases increased ([2]; 12-week study): 1 (0.2) n (%)
- AE: Type 2 diabetes mellitus ([2]; 12-week study): 2 (0.4) n (%)
- AE: Urinary retention ([2]; 12-week study): 3 (0.6) n (%)
- AE: Urinary tract infection ([2]; 12-week study): 27 (5.0) n (%)
- AE: Vertigo ([2]; 12-week study): 1 (0.2) n (%)
- AE: Back pain ([2]; patients ≥75 years): 2.7%
- AE: Diarrhea ([2]; patients ≥75 years): 4.0%
- AE: Dyspnea ([2]; patients ≥75 years): 4.0%
- AE: Nausea ([2]; patients ≥75 years): 2.7%
- AE: Rash ([2]; patients ≥75 years): 2.7%
- AE: Somnolence ([2]; patients ≥75 years): 2.7%
- AE: Upper respiratory tract infection ([2]; patients ≥75 years): 4.0%
- AE: Urinary retention ([2]; patients ≥75 years): 2.7%
- AE: Urinary tract infection ([2]; patients ≥75 years): 8.0%
- Overall AE rate ([2]; patients ≥75 years): 49.3%
- Any AE of clinical interest, % ([2]; safety population): (6.6%)
- Patients with at least one treatment emergent serious AEs, % ([2]; safety population): (1.5) %
- SAEs considered treatment-related by the investigator, % ([2]; safety population): (0.4) %
- SAEs: Hospitalization, % ([2]; safety population): (1.3) %
- SAEs: other serious criteria, % ([2]; safety population): (0.4) %
- Patients with at least one treatment emergent adverse events, % ([2]; safety population, 12-week study): (38.7) %
- Patients with at least one Serious AE ([2]; vibegron 75 mg or tolterodine ER 4 mg once daily, 12 weeks): 1.5%
